According to paper PMC7464559, “Synthesis, Optimization, Antifungal Activity, Selectivity, and CYP51 Binding of New 2-Aryl-3-azolyl-1-indolyl-propan-2-ols” (Pharmaceuticals, 2020):
In brackets after ≈: the same amount, converted by molar mass.

Experiments:
[1] = tested on: CL98001 (Candida lusitaniae); test: Anti-Candida in vitro assay, CL98001; format: cell-based; settings: Clavispora lusitaniae; Candida lusitaniae CL98001, mean of triplicate; read-out: MIC (IC80) CL98001
Experimental: (§1) Test fungal strains were obtained from the American Type Culture Collection (ATCC) or were clinical isolates from the Laboratory of Parasitology and Medical Mycology, Centre Hospitalier Universitaire (CHU) of Nantes. The strains were maintained on Sabouraud agar slants and were subcultured 24 h before used. The activity of the target compounds 8a–g and 11a–m was determined by the method previously described. Briefly, molecules were diluted in RPMI 1640 medium supplemented with 0.165 M morpholinopropanesulphonic acid (Sigma-Aldrich, Saint-Quentin Fallavier, France), 2% glucose, and antibiotics. Candida suspensions were prepared in RPMI 1640 medium (Sigma-Aldrich, Saint-Quentin Fallavier, France) adjusted to give a final concentration of 10^3 cells/mL, and a 96-well microplate (Nunc, D. Dutscher, Brumath, France) was seeded with 100 µL. Each concentration of molecules (100 µL) to be tested was added (in triplicate) and plates were incubated at 37 °C for 24 h. The cellular viability was evaluated on the Fluorolite 1000 (Dynatech, France) with an excitation at 550 nm and an emission at 590 nm after a 4 h incubation with 10 µL of Alamar Blue®. […] MIC was expressed as the mean of the triplicate values. KTC and FLC were used as standards.

[2] = MRC5 toxicity assay; format: cell-based, human; settings: human, MRC-5 human fetal lung fibroblast cells, MRC-5 cells, 96-h incubation, mean of triplicate; read-out: Cytotoxicity IC50 on MRC-5 cells
Experimental: The cytotoxicity of compounds was studied with human fibroblast (MRC5). Cells were grown in RPMI 1640 medium (Sigma-Aldrich, Saint-Quentin Fallavier, France) supplemented with 10% fetal bovin serum (Sigma–Aldrich). Drugs were tested at three concentrations (100, 10, and 1 µM) in triplicate. After a 96-h incubation time, cytotoxicity was measured on the Fluorolite 1000 (Dynatech, Guyancourt, France) after a 4-h incubation time with Uptiblue® (Interchim, Montluçon, France). Inhibitory concentration 50 is a mean of triplicate values. A toxicity index was determined as follow: IC50 against MRC5/Geometric mean of the MICs against Candida spp..

[3] = tested on: C. albicans CA98001; test: Anti-Candida in vitro assay (Alamar Blue), C. albicans CA98001; format: cell-based; settings: for MIC: Candida albicans, CA98001, 24 h
Experimental: as §1

[4] = tested on: ATCC90018 Candida parapsilosis strain; test: Anti-Candida in vitro assay, ATCC90018; format: cell-based; settings: Lodderomyces parapsilosis; Candida parapsilosis ATCC90018, mean of triplicate; read-out: MIC (IC80) ATCC90018
Experimental: as §1

[5] = tested on: ATCC2091 Candida albicans strain; test: Anti-Candida in vitro assay, ATCC2091; format: cell-based; settings: Candida albicans ATCC2091, mean of triplicate; read-out: MIC (IC80) ATCC2091
Experimental: as §1

[6] = tested on: CA98002 (Candida albicans); test: Anti-Candida in vitro assay, CA98002; format: cell-based; settings: Candida albicans CA98002, mean of triplicate; read-out: MIC (IC80) CA98002
Experimental: as §1

[7] = tested on: CK98002 (Candida krusei); test: Anti-Candida in vitro assay, CK98002; format: cell-based; settings: Pichia kudriavzevii; Candida krusei CK98002, mean of triplicate; read-out: MIC (IC80) CK98002
Experimental: as §1

[8] = tested on: CA98005 (Candida albicans); test: Anti-Candida in vitro assay, CA98005; format: cell-based; settings: Candida albicans CA98005, mean of triplicate; read-out: MIC (IC80) CA98005
Experimental: as §1

[9] = tested on: CK98003 (Candida krusei); test: Anti-Candida in vitro assay, CK98003; format: cell-based; settings: Pichia kudriavzevii; Candida krusei CK98003, mean of triplicate; read-out: MIC (IC80) CK98003
Experimental: as §1

[10] = tested on: ATCC6258 Candida krusei strain; test: Anti-Candida in vitro assay, ATCC6258; format: cell-based; settings: Pichia kudriavzevii; Candida krusei ATCC6258, mean of triplicate; read-out: MIC (IC80) ATCC6258
Experimental: as §1

[11] = MIC = IC80, 24 h at 37 °C, mean of triplicate

Compound	MIC [1] [µg/mL]	IC50 at 96 h [2] [µM]	MIC [3, 11] [µg/mL]	MIC [4] [µg/mL]	melting point [°C]	MIC [5] [µg/mL]	MIC [6] [µg/mL]	MIC [7] [µg/mL]	MIC [8] [µg/mL]	MIC [9] [µg/mL]	MIC [10] [µg/mL]	Times more active than FLC against C. albicans CA98001 ([3]; ratio of MIC values versus FLC)	MIC (= IC80) C. albicans CA98001 [3, 11] [µg/mL]
OC(Cn1ccnc1)(Cn1ccc2ccccc21)c1ccc(F)cc1 (stereo not shown) [Compound 8a, 2-(4-Fluorophenyl)-1-(1H-imidazol-1-yl)-3-(1H-indol-1-yl)propan-2-ol]	0.231 (≈ 0.689 µM)	50	0.03 (≈ 0.0895 µM)	2.11 (≈ 6.29 µM)	166 to 167	0.131 (≈ 0.391 µM)	0.205 (≈ 0.611 µM)	12.8 (≈ 38 µM)	0.148 (≈ 0.441 µM)	28.6 (≈ 85.3 µM)	> 33.5		
OC(Cn1ccnc1)(Cn1ccc2ccccc21)c1ccc(Cl)cc1 (stereo not shown) [Compound 8b, 2-(4-Chlorophenyl)-1-(1H-imidazol-1-yl)-3-(1H-indol-1-yl)propan-2-ol]	0.222 (≈ 0.631 µM)	37	0.02 (≈ 0.0568 µM)	1.3 (≈ 3.69 µM)	201 to 202	0.215 (≈ 0.611 µM)	0.165 (≈ 0.469 µM)	2.72 (≈ 7.74 µM)	0.106 (≈ 0.301 µM)	> 35.2	> 35.2		
OC(Cn1ccnc1)(Cn1ccc2ccccc21)c1ccc(Br)cc1 (stereo not shown) [Compound 8c, 2-(4-Bromophenyl)-1-(1H-imidazol-1-yl)-3-(1H-indol-1-yl)propan-2-ol]	0.25 (≈ 0.631 µM)	31	0.02 (≈ 0.0505 µM)	1.84 (≈ 4.64 µM)	134 to 135	0.357 (≈ 0.901 µM)	0.25 (≈ 0.631 µM)	5.08 (≈ 12.8 µM)	0.21 (≈ 0.53 µM)	36.6 (≈ 92.3 µM)	> 39.6		
OC(Cn1ccnc1)(Cn1ccc2ccccc21)c1ccc(F)cc1F (stereo not shown) [Compound 8d, 2-(2,4-Difluorophenyl)-1-(1H-imidazol-1-yl)-3-(1H-indol-1-yl)propan-2-ol]	0.068 (≈ 0.192 µM)	34	0.00035 (≈ 0.00099 µM)	0.614 (≈ 1.74 µM)	166 to 168	0.726 (≈ 2.05 µM)	0.609 (≈ 1.72 µM)	5.69 (≈ 16.1 µM)	0.439 (≈ 1.24 µM)	5.21 (≈ 14.7 µM)	3.86 (≈ 10.9 µM)	57	
OC(Cn1ccnc1)(Cn1ccc2ccccc21)c1ccc(Cl)cc1Cl (stereo not shown) [Compound 8e, 2-(2,4-Dichlorophenyl)-1-(1H-imidazol-1-yl)-3-(1H-indol-1-yl)propan-2-ol]	0.116 (≈ 0.3 µM)	31	0.062 (≈ 0.161 µM)	0.24 (≈ 0.621 µM)	212 to 213	0.19 (≈ 0.492 µM)	0.251 (≈ 0.65 µM)	1.8 (≈ 4.66 µM)	0.274 (≈ 0.709 µM)	0.28 (≈ 0.725 µM)	1.2 (≈ 3.11 µM)		
OC(Cn1cncn1)(Cn1ccc2ccccc21)c1ccc(C(F)(F)F)cc1 (stereo not shown) [Compound 8f, 1-(1H-Indol-1-yl)-3-(1,2,4-1H-triazol-1-yl)-2-(4-trifluoromethyl-phenyl)propan-2-ol]	0.199 (≈ 0.515 µM)	76	0.009 (≈ 0.0233 µM)	2 (≈ 5.18 µM)	165 to 168	0.247 (≈ 0.639 µM)	0.233 (≈ 0.603 µM)	10.6 (≈ 27.3 µM)	0.749 (≈ 1.94 µM)	3.07 (≈ 7.94 µM)	19.1 (≈ 49.4 µM)		
OC(Cn1cncn1)(Cn1ccc2ccccc21)c1ccc(F)cc1 (stereo not shown) [Compound 11a, 2-(4-Fluorophenyl)-3-(1H-indol-1-yl)-1-(1H-1,2,4-triazol-1-yl)propan-2-ol]	0.259 (≈ 0.77 µM)	> 100	0.21 (≈ 0.624 µM)	2.52 (≈ 7.5 µM)	190 to 191	0.437 (≈ 1.3 µM)	0.404 (≈ 1.2 µM)	21.4 (≈ 63.7 µM)	0.437 (≈ 1.3 µM)	18.7 (≈ 55.5 µM)	19.2 (≈ 57.2 µM)		0.21 (≈ 0.624 µM)
OC(Cn1cncn1)(Cn1ccc2ccccc21)c1ccc(Cl)cc1 (stereo not shown) [Compound 11b, 2-(4-Chlorophenyl)-3-(1H-indol-1-yl)-1-(1H-1,2,4-triazol-1-yl)propan-2-ol]	0.208 (≈ 0.59 µM)	> 100	0.024 (≈ 0.068 µM)	2.05 (≈ 5.8 µM)	188 to 189	0.258 (≈ 0.731 µM)	0.261 (≈ 0.74 µM)	12.7 (≈ 35.9 µM)	0.222 (≈ 0.629 µM)	2.43 (≈ 6.9 µM)	2.43 (≈ 6.9 µM)		
OC(Cn1cncn1)(Cn1ccc2ccccc21)c1ccc(Br)cc1 (stereo not shown) [Compound 11c, 2-(4-Bromophenyl)-3-(1H-indol-1-yl)-1-(1H-1,2,4-triazol-1-yl)propan-2-ol]	0.215 (≈ 0.541 µM)	38	0.027 (≈ 0.068 µM)	2.03 (≈ 5.1 µM)	186 to 187	0.477 (≈ 1.2 µM)	0.338 (≈ 0.851 µM)	2.46 (≈ 6.2 µM)	0.286 (≈ 0.72 µM)	2.5 (≈ 6.3 µM)	1.51 (≈ 3.8 µM)		
OC(Cn1ccnc1)(Cn1ccc2ccccc21)c1ccc(C(F)(F)F)cc1 (stereo not shown) [Compound 11e, 1-(1H-Imidazol-1-yl)-3-(1H-indol-1-yl)-2-(4-trifluoromethylphenyl)propan-2-ol]	0.173 (≈ 0.449 µM)	36	0.23 (≈ 0.597 µM)	2.47 (≈ 6.4 µM)	246 to 247	2.12 (≈ 5.5 µM)	0.32 (≈ 0.83 µM)	18.3 (≈ 47.5 µM)	0.258 (≈ 0.669 µM)	16.2 (≈ 42.1 µM)	22.1 (≈ 57.4 µM)		
Cc1cc2ccccc2n1CC(O)(Cn1cncn1)c1ccc(F)cc1F (stereo not shown) [Compound 11f, 2-(2,4-Difluorophenyl)-3-(2-methyl-1H-indol-1-yl)-1-(1H-1,2,4-triazol-1-yl)propan-2-ol]	0.232 (≈ 0.63 µM)	~190	0.022 (≈ 0.0597 µM)	2.5 (≈ 6.8 µM)	125 to 126	0.199 (≈ 0.54 µM)	0.302 (≈ 0.82 µM)	7.59 (≈ 20.6 µM)	0.516 (≈ 1.4 µM)	5.45 (≈ 14.8 µM)	17.6 (≈ 47.7 µM)		
Cc1cc2ccccc2n1CC(O)(Cn1cncn1)c1ccc(Cl)cc1Cl (stereo not shown) [Compound 11g, 2-(2,4-Dichlorophenyl)-3-(2-methyl-1H-indol-1-yl)-1-(1H-1,2,4-triazol-1-yl)propan-2-ol]	0.181 (≈ 0.451 µM)	157	0.0058 (≈ 0.0145 µM)	> 40	170 to 171	0.526 (≈ 1.31 µM)	0.321 (≈ 0.8 µM)	> 40	0.269 (≈ 0.67 µM)	> 40	> 40		
Cc1cn(CC(O)(Cn2cncn2)c2ccc(F)cc2F)c2ccccc12 (stereo not shown) [Compound 11h, 2-(2,4-Difluorophenyl)-3-(3-methyl-1H-indol-1-yl)-1-(1H-1,2,4-triazol-1-yl)propan-2-ol]	0.023 (≈ 0.0624 µM)	105		0.309 (≈ 0.839 µM)	112 to 113	0.136 (≈ 0.369 µM)	0.033 (≈ 0.0896 µM)	0.81 (≈ 2.2 µM)	0.265 (≈ 0.719 µM)	0.7 (≈ 1.9 µM)	1.4 (≈ 3.8 µM)		
OC(Cn1ccnn1)(Cn1ccc2ccccc21)c1ccc(Cl)cc1Cl (stereo not shown) [Compound 11l, 2-(2,4-Dichlorophenyl)-3-(1H-indol-1-yl)-1-(1H-1,2,3-triazol-1-yl)propan-2-ol]			> 100		210 to 211								
OC(Cn1nccn1)(Cn1ccc2ccccc21)c1ccc(Cl)cc1Cl (stereo not shown) [Compound 11m, 2-(2,4-Dichlorophenyl)-3-(1H-indol-1-yl)-1-(2H-1,2,3-triazol-2-yl)propan-2-ol]			> 100		159 to 161								
